Experiment [1] relates to HCV genotype 1a (H77 strain) replicon in HUH-7 cells. As to the kind of experiment: HCV replicon luciferase reporter assay, genotype 1a. The format is cell-based. As to conditions: Hepatitis C virus, Huh-7, 72 h, HCV genotype 1a replicon luciferase assay, 3 days incubation, range class, read-out: LE_1a (EC50, range). A digest of the protocol: (§1)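 Replicon inhibition for both genotypes was measured as Renilla luciferase signal (EnduRen, 7.5 μM final, 2 h) after 3-day, 37° C exposure of replicon-bearing HUH-7 cells in 4% FCS DMEM, 0.5% DMSO. The 1b construct carries S1179I; the 1a H77 construct carries P1496L and S2204I. Twenty-point, 3-fold dilutions were fitted four-parametrically for EC50, and CC50 was taken from multiplexed Cell Titer-Blue.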
Background: In antiviral work, replicon cells carry a viral genome segment that copies itself.

Experiment [2] relates to HCV genotype 1b (Con1) replicon in HUH-7 cells. As to the kind of experiment: HCV replicon luciferase reporter assay, genotype 1b. The format is cell-based. The note with it: Hepatitis C virus, Huh-7, 72 h, HCV genotype 1b replicon luciferase assay, 3 days incubation, range class, read-out: LE_1b (EC50, range). A digest of the protocol: as §1

Molecules are shown by their SMILES. Bounds are passed on as bounds.

As a reminder, the EC50 is the concentration giving half of the maximal effect. As to `COc1ccc2c(O[C@@H]3C[C@H]4C(=O)N[C@]5(C(=O)NS(=O)(=O)C6(C)CC6)C[C@H]5/C=C\CC[C@H](C)C[C@@H](C)[C@H](NC(=O)O[C@H](C)C(F)(F)F)C(=O)N4C3)nc(N3CCOCC3)cc2c1` [Compound 3092, (R)-1,1,1-trifluoropropan-2-yl ((2R,6S,7R,9S,13aS,14aR,16aS,Z)-2-((6-methoxy-3-morpholinoisoquinolin-1-yl)oxy)-7,9-dimethyl-14a-(((1-methylcyclopropyl)sulfonyl)carbamoyl)-5,16-dioxo-1,2,3,5,6,7,8,9,10,11,13a,14,14a,15,16,16a-hexadecahydrocyclopropa[e]pyrrolo[1,2-a][1,4]diazacyclopentadecin-6-yl)carbamate], the EC50 in experiment [1] and in experiment [2] was less than 5.46 nM in each case.
For `COc1ccc2c(O[C@@H]3C[C@H]4C(=O)N[C@]5(C(=O)NS(=O)(=O)C6(C)CC6)C[C@H]5/C=C\CC[C@@H](C)C[C@@H](C)[C@H](NC(=O)O[C@H](C)C(F)(F)F)C(=O)N4C3)nc(N3CCOCC3)cc2c1` [Compound 3093, (R)-1,1,1-trifluoropropan-2-yl ((2R,6S,7R,9R,13aS,14aR,16aS,Z)-2-((6-methoxy-3-morpholinoisoquinolin-1-yl)oxy)-7,9-dimethyl-14a-(((1-methylcyclopropyl)sulfonyl)carbamoyl)-5,16-dioxo-1,2,3,5,6,7,8,9,10,11,13a,14,14a,15,16,16a-hexadecahydrocyclopropa[e]pyrrolo[1,2-a][1,4]diazacyclopentadecin-6-yl)carbamate], the EC50 in experiment [1] and in experiment [2] was less than 5.46 nM throughout.
As for `COc1ccc2c(O[C@@H]3C[C@H]4C(=O)N[C@]5(C(=O)NS(=O)(=O)C6(C)CC6)C[C@H]5/C=C\CC[C@H](C)C[C@@H](C)[C@H](NC(=O)OC(C)(C)C(F)(F)F)C(=O)N4C3)nc(N3CCOCC3)cc2c1` [Compound 3094, 1,1,1-trifluoro-2-methylpropan-2-yl((2R,6S,7R,9S,13aS,14aR,16aS,Z)-2-((6-methoxy-3-morpholinoisoquinolin-1-yl)oxy)-7,9-dimethyl-14a-(((1-methylcyclopropyl)sulfonyl)carbamoyl)-5,16-dioxo-1,2,3,5,6,7,8,9,10,11,13a,14,14a,15,16,16a-hexadecahydrocyclopropa[e]pyrrolo[1,2-a][1,4]diazacyclopentadecin-6-yl)carbamate], the EC50 in experiment [1] is 4.82 to 103 nM; in experiment [2], less than 5.46 nM.
The corresponding values for `COc1ccc2c(O[C@@H]3C[C@H]4C(=O)N[C@]5(C(=O)NS(=O)(=O)C6(C)CC6)C[C@H]5/C=C\CC[C@@H](C)C[C@@H](C)[C@H](NC(=O)OC(C)(C)C(F)(F)F)C(=O)N4C3)nc(N3CCOCC3)cc2c1` [Compound 3095, 1,1,1-trifluoro-2-methylpropan-2-yl((2R,6S,7R,9R,13aS,14aR,16aS,Z)-2-((6-methoxy-3-morpholinoisoquinolin-1-yl)oxy)-7,9-dimethyl-14a-(((1-methylcyclopropyl)sulfonyl)carbamoyl)-5,16-dioxo-1,2,3,5,6,7,8,9,10,11,13a,14,14a,15,16,16a-hexadecahydrocyclopropa[e]pyrrolo[1,2-a][1,4]diazacyclopentadecin-6-yl)carbamate] are less than 5.46 nM and less than 5.46 nM.
For `COc1ccc2c(O[C@@H]3C[C@H]4C(=O)N[C@]5(C(=O)NS(=O)(=O)C6(C)CC6)C[C@H]5/C=C\CC[C@H](C)C[C@@H](C)[C@H](NC(=O)O[C@@H]5C[C@@H]6C[C@@H]6C5)C(=O)N4C3)nc(N3CCOCC3)cc2c1` [Compound 3096, (1R,3r,5S)-bicyclo[3.1.0]hexan-3-yl((2R,6S,7R,9S,13aS,14aR,16aS,Z)-2-((6-methoxy-3-morpholinoisoquinolin-1-yl)oxy)-7,9-dimethyl-14a-(((1-methylcyclopropyl)sulfonyl)carbamoyl)-5,16-dioxo-1,2,3,5,6,7,8,9,10,11,13a,14,14a,15,16,16a-hexadecahydrocyclopropa[e]pyrrolo[1,2-a][1,4]diazacyclopentadecin-6-yl)carbamate], in that order: 4.82 to 103 nM and less than 5.46 nM.
Take `COc1ccc2c(O[C@@H]3C[C@H]4C(=O)N[C@]5(C(=O)NS(=O)(=O)C6(C)CC6)C[C@H]5/C=C\CC[C@@H](C)C[C@@H](C)[C@H](NC(=O)O[C@@H]5C[C@@H]6C[C@@H]6C5)C(=O)N4C3)nc(N3CCOCC3)cc2c1` [Compound 3097, (1R,3r,5S)-bicyclo[3.1.0]hexan-3-yl((2R,6S,7R,9R,13aS,14aR,16aS,Z)-2-((6-methoxy-3-morpholinoisoquinolin-1-yl)oxy)-7,9-dimethyl-14a-(((1-methylcyclopropyl)sulfonyl)carbamoyl)-5,16-dioxo-1,2,3,5,6,7,8,9,10,11,13a,14,14a,15,16,16a-hexadecahydrocyclopropa[e]pyrrolo[1,2-a][1,4]diazacyclopentadecin-6-yl)carbamate]: the EC50 in experiment [1] and in experiment [2] was less than 5.46 nM in each case.
On to `COc1ccc2c(O[C@@H]3C[C@H]4C(=O)N[C@]5(C(=O)NS(=O)(=O)C6CC6)C[C@H]5/C=C\CC[C@H](C)C[C@@H](C)[C@H](NC(=O)OC(C)(C)C(F)(F)F)C(=O)N4C3)nc(N3CCOCC3)cc2c1` [Compound 3098, 1,1,1-trifluoro-2-methylpropan-2-yl((2R,6S,7R,9S,13aS,14aR,16aS,Z)-14a-((cyclopropylsulfonyl)carbamoyl)-2-((6-methoxy-3-morpholinoisoquinolin-1-yl)oxy)-7,9-dimethyl-5,16-dioxo-1,2,3,5,6,7,8,9,10,11,13a,14,14a,15,16,16a-hexadecahydrocyclopropa[e]pyrrolo[1,2-a][1,4]diazacyclopentadecin-6-yl)carbamate], for which the EC50 in experiment [1] and in experiment [2] was less than 5.46 nM throughout.
For the molecule `COc1ccc2c(O[C@@H]3C[C@H]4C(=O)N[C@]5(C(=O)NS(=O)(=O)C6CC6)C[C@H]5/C=C\CC[C@@H](C)C[C@@H](C)[C@H](NC(=O)OC(C)(C)C(F)(F)F)C(=O)N4C3)nc(N3CCOCC3)cc2c1` [Compound 3099, 1,1,1-trifluoro-2-methylpropan-2-yl((2R,6S,7R,9R,13aS,14aR,16aS,Z)-14a-((cyclopropylsulfonyl)carbamoyl)-2-((6-methoxy-3-morpholinoisoquinolin-1-yl)oxy)-7,9-dimethyl-5,16-dioxo-1,2,3,5,6,7,8,9,10,11,13a,14,14a,15,16,16a-hexadecahydrocyclopropa[e]pyrrolo[1,2-a][1,4]diazacyclopentadecin-6-yl)carbamate], the EC50 in experiment [1] and in experiment [2] was less than 5.46 nM in each case.
`[2H]C([2H])([2H])C(OC(=O)N[C@@H]1C(=O)N2C[C@H](Oc3nc(N4CCOCC4)cc4cc(OC)ccc34)C[C@H]2C(=O)N[C@]2(C(=O)NS(=O)(=O)C3CC3)C[C@H]2/C=C\CC[C@H](C)C[C@H]1C)(C([2H])([2H])[2H])C(F)(F)F` [Compound 3100, 1,1,1,3,3,3-hexadeutero-2-(trifluoromethyl)propan-2-yl((2R,6S,7R,9S,13aS,14aR,16aS,Z)-14a-((cyclopropylsulfonyl)carbamoyl)-2-((6-methoxy-3-morpholinoisoquinolin-1-yl)oxy)-7,9-dimethyl-5,16-dioxo-1,2,3,5,6,7,8,9,10,11,13a,14,14a,15,16,16a-hexadecahydrocyclopropa[e]pyrrolo[1,2-a][1,4]diazacyclopentadecin-6-yl)carbamate]: the EC50 in experiment [1] and in experiment [2] was less than 5.46 nM each time.
With `[2H]C([2H])([2H])C(OC(=O)N[C@@H]1C(=O)N2C[C@H](Oc3nc(N4CCOCC4)cc4cc(OC)ccc34)C[C@H]2C(=O)N[C@]2(C(=O)NS(=O)(=O)C3CC3)C[C@H]2/C=C\CC[C@@H](C)C[C@H]1C)(C([2H])([2H])[2H])C(F)(F)F` [Compound 3101, 1,1,1,3,3,3-hexadeutero-2-(trifluoromethyl)propan-2-yl((2R,6S,7R,9R,13aS,14aR,16aS,Z)-14a-((cyclopropylsulfonyl)carbamoyl)-2-((6-methoxy-3-morpholinoisoquinolin-1-yl)oxy)-7,9-dimethyl-5,16-dioxo-1,2,3,5,6,7,8,9,10,11,13a,14,14a,15,16,16a-hexadecahydrocyclopropa[e]pyrrolo[1,2-a][1,4]diazacyclopentadecin-6-yl)carbamate], the EC50 in experiment [1] and in experiment [2] was less than 5.46 nM in each case.
For `COc1ccc2c(O[C@@H]3C[C@H]4C(=O)N[C@]5(C(=O)NS(=O)(=O)C6CC6)C[C@H]5/C=C\CC[C@H](C)C[C@@H](C)[C@H](NC(=O)O[C@H](C)C(F)(F)F)C(=O)N4C3)nc(N3CCOCC3)cc2c1` [Compound 3102, (R)-1,1,1-trifluoropropan-2-yl ((2R,6S,7R,9S,13aS,14aR,16aS,Z)-14a-((cyclopropylsulfonyl)carbamoyl)-2-((6-methoxy-3-morpholinoisoquinolin-1-yl)oxy)-7,9-dimethyl-5,16-dioxo-1,2,3,5,6,7,8,9,10,11,13a,14,14a,15,16,16a-hexadecahydrocyclopropa[e]pyrrolo[1,2-a][1,4]diazacyclopentadecin-6-yl)carbamate], the EC50 in experiment [1] is 4.82 to 103 nM; in experiment [2], less than 5.46 nM.
Consider `COc1ccc2c(O[C@@H]3C[C@H]4C(=O)N[C@]5(C(=O)NS(=O)(=O)C6CC6)C[C@H]5/C=C\CC[C@@H](C)C[C@@H](C)[C@H](NC(=O)O[C@H](C)C(F)(F)F)C(=O)N4C3)nc(N3CCOCC3)cc2c1` [Compound 3103, (R)-1,1,1-trifluoropropan-2-yl ((2R,6S,7R,9R,13aS,14aR,16aS,Z)-14a-((cyclopropylsulfonyl)carbamoyl)-2-((6-methoxy-3-morpholinoisoquinolin-1-yl)oxy)-7,9-dimethyl-5,16-dioxo-1,2,3,5,6,7,8,9,10,11,13a,14,14a,15,16,16a-hexadecahydrocyclopropa[e]pyrrolo[1,2-a][1,4]diazacyclopentadecin-6-yl)carbamate], for which the EC50 in experiment [1] and in experiment [2] was less than 5.46 nM throughout.

The values are drawn from patent publication US9499550B2 (BRISTOL-MYERS SQUIBB COMPANY, priority 2012, dated 2016).
